IC50 data for eleven compounds are collected here from patent publication US12172995B2, “Substituted indole and indazole compounds” (BRISTOL-MYERS SQUIBB COMPANY, priority 2018, dated 2024).

Usually pIC50 stands for −log10 of the IC50, conventionally taken in molar units.

What all share (type): cell-based
One assay deals with T1, human TLR7 (Homo sapiens, UniProt Q9NYK1).
T1 construct: host or cells: HEK-Blue cells
T1 sequence (Q9NYK1 27-1049): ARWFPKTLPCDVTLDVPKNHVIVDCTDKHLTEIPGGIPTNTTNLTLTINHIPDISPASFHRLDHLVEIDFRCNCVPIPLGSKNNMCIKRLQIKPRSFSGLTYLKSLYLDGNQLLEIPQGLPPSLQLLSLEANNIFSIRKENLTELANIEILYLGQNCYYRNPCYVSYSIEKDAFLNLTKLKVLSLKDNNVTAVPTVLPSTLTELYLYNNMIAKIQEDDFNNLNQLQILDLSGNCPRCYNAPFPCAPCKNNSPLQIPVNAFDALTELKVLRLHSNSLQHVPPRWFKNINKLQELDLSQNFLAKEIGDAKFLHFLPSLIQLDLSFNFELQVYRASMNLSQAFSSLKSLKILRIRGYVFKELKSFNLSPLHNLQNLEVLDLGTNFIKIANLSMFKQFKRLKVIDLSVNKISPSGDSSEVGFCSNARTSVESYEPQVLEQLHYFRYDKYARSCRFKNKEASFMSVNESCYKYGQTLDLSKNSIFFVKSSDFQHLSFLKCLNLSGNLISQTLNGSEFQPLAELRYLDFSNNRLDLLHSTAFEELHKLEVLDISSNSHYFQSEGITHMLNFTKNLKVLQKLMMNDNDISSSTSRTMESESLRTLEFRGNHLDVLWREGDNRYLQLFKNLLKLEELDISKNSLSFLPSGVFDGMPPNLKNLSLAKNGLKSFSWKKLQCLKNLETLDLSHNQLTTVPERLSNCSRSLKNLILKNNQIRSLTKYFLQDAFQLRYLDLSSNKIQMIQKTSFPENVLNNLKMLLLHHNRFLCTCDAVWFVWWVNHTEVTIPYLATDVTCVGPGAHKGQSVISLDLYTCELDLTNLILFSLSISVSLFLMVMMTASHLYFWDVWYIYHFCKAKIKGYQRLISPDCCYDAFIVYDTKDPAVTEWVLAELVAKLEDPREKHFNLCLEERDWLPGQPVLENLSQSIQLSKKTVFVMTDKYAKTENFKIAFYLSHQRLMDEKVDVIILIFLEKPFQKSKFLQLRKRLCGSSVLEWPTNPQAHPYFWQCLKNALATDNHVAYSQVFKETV
The experiment in a line: TLR7 inhibition reporter assay (HEK-Blue SEAP). Particulars: HEK-Blue cells overexpressing human TLR7, stimulated with gardiquimod 7.5 μM, 22 hour incubation. Put shortly:
(§1)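 Reporter HEK-Blue lines; cpd 0.05 nM–50 μM, 30 min preincubation RT; agonist: TLR7 gardiquimod 7.5 μM, TLR8 R848 15.9 μM, TLR9 ODN2006 5 nM; 22 h 37 °C; SEAP detected colorimetrically; % inhib vs known inhibitor.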
On the technique in general: In a reporter assay the amount or activity of a reporter protein is the signal.

Another assay deals with T2, human TLR8 (Homo sapiens, UniProt Q9NR97).
T2 construct: host or cells: HEK-Blue cells
T2 sequence (Q9NR97 27-1041): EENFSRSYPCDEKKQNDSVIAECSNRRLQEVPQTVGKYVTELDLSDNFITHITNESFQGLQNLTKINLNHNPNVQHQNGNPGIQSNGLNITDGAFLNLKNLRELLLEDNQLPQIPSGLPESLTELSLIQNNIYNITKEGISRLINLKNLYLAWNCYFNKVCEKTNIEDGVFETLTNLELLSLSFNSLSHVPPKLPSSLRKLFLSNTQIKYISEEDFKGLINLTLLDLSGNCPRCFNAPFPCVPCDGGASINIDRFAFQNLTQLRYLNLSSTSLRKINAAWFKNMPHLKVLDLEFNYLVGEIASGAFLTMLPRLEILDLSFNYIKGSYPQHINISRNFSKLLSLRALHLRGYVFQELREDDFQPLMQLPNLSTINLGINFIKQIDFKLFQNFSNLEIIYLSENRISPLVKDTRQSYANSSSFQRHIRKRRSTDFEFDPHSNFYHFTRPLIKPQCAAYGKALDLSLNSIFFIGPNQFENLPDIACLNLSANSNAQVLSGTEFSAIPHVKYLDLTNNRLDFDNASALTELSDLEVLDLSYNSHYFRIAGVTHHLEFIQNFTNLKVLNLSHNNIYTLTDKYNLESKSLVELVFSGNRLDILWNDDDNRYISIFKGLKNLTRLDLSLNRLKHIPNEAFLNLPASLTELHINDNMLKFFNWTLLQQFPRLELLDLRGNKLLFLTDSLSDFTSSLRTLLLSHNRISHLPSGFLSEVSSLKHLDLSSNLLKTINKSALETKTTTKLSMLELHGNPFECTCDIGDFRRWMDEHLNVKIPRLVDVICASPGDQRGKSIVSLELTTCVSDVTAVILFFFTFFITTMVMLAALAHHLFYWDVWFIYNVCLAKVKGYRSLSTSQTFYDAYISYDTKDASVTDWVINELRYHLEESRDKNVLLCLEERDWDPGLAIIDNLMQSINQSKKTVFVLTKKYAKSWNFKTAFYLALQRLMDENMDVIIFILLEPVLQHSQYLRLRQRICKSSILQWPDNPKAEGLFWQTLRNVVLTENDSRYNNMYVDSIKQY
The assay is described as follows: TLR8 inhibition reporter assay (HEK-Blue SEAP). The following applies: HEK-Blue cells overexpressing human TLR8, stimulated with R848 15.9 μM, 22 hour incubation. Put shortly:
as §1

The next assay addresses T3, human TLR9 (Homo sapiens, UniProt Q9NR96).
T3 construct: host or cells: HEK-Blue cells
T3 sequence (Q9NR96 26-1032): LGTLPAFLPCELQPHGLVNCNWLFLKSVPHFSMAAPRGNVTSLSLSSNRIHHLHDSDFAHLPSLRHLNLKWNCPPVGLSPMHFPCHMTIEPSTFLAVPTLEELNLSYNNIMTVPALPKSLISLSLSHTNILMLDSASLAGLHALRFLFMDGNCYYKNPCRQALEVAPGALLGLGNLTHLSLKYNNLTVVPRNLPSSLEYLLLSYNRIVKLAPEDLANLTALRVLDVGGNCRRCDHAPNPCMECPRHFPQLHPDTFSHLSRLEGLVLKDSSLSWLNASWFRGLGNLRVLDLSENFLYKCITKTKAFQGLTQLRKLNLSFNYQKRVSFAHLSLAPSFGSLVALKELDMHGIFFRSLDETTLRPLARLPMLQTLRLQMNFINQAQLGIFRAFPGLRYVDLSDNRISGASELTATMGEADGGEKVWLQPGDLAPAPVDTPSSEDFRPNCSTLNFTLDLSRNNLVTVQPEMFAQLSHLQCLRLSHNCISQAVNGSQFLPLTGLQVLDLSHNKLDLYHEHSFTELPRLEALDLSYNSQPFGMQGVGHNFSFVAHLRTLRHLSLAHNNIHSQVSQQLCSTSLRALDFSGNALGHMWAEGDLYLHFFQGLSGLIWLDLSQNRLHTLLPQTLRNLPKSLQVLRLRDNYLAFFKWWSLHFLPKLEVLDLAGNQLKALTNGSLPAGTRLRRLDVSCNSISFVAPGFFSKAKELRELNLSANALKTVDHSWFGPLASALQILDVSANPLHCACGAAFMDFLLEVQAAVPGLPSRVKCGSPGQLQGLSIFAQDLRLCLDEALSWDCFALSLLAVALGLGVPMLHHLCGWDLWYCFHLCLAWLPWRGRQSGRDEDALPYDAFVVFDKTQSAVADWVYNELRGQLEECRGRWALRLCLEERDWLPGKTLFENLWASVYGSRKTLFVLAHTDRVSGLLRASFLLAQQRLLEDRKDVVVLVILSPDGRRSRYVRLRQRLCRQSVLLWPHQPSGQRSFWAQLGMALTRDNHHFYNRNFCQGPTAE
The assay is described as follows: TLR9 inhibition reporter assay (HEK-Blue SEAP). Particulars: HEK-Blue cells overexpressing human TLR9, stimulated with ODN2006 5 nM, 22 hour incubation. A digest of the protocol: as §1

pIC50: −log10 of the molar value.

`COc1cc(-c2cc3[nH]nc(C4CCC(N(C)C)CC4)c3cc2C(C)C)cn2ncnc12` (single isomer, unassigned) [Example 140, 4-(5-isopropyl-6-(8-methoxy-[1,2,4]triazolo[1,5-a]pyridin-6-yl)-1H-indazol-3-yl)-N,N-dimethylcyclohexan-1-amine]: the values for the pIC50 against human TLR7, against human TLR8 and at human TLR9 were 9.70, 10.00 and 5.46, respectively.

As for `COc1cc(-c2cc3[nH]nc(C4CCC(N(C)C)CC4)c3cc2C(C)C)cn2ncnc12` (single isomer, unassigned) [Example 141, 4-(5-isopropyl-6-(8-methoxy-[1,2,4]triazolo[1,5-a]pyridin-6-yl)-1H-indazol-3-yl)-N,N-dimethylcyclohexan-1-amine], the results for the pIC50 at human TLR7, against human TLR8 and against human TLR9 were 8.28, 8.54 and 5.43, respectively.

Consider `Cc1cc(-c2cc3[nH]nc(C4CCC(N5CC6(C5)CS(=O)(=O)C6)CC4)c3cc2C(C)C)cn2ncnc12` (single isomer, unassigned) [Example 142, 6-(4-(5-isopropyl-6-(8-methyl-[1,2,4]triazolo[1,5-a]pyridin-6-yl)-1H-indazol-3-yl)cyclohexyl)-2-thia-6-azaspiro[3.3]heptane 2,2-dioxide], for which the pIC50 on human TLR7 was 8.89; on human TLR8, 9.70; on human TLR9, 5.01.

As for `Cc1cc(-c2cc3[nH]nc(C4CCC(N5CC6(C5)CS(=O)(=O)C6)CC4)c3cc2C(C)C)cn2ncnc12` (single isomer, unassigned) [Example 143, 6-(4-(5-isopropyl-6-(8-methyl-[1,2,4]triazolo[1,5-a]pyridin-6-yl)-1H-indazol-3-yl)cyclohexyl)-2-thia-6-azaspiro[3.3]heptane 2,2-dioxide], the pIC50 against human TLR7 is 8.46; at human TLR8 it was 8.82; on human TLR9, 5.17.

For `COc1cc(-c2cc3[nH]nc(C4CCC(N5CC(OC)C5)CC4)c3cc2C(C)C)cn2ncnc12` (single isomer, unassigned) [Example 147, 6-(5-isopropyl-3-(4-(3-methoxyazetidin-1-yl)cyclohexyl)-1H-indazol-6-yl)-8-methoxy-[1,2,4]triazolo[1,5-a]pyridine], the pIC50 is 9.40 against human TLR7, 9.70 against human TLR8 and 4.88 at human TLR9.

Take `COc1cc(-c2cc3[nH]nc(C4CCC(N5CC(OC)C5)CC4)c3cc2C(C)C)cn2ncnc12` (single isomer, unassigned) [Example 148, 6-(5-isopropyl-3-(4-(3-methoxyazetidin-1-yl)cyclohexyl)-1H-indazol-6-yl)-8-methoxy-[1,2,4]triazolo[1,5-a]pyridine]: the pIC50 is 8.89 against human TLR7, 7.50 against human TLR8 and 5.19 against human TLR9.

For the compound `CCOC1CN(C2CCC(c3n[nH]c4cc(-c5cc(C)c6ncnn6c5)c(C(C)C)cc34)CC2)C1` (single isomer, unassigned) [Example 149, 6-(3-(4-(3-ethoxyazetidin-1-yl)cyclohexyl)-5-isopropyl-1H-indazol-6-yl)-8-methyl-[1,2,4]triazolo[1,5-a]pyridine], the pIC50 is 9.10 against human TLR7, 9.40 against human TLR8 and 5.13 against human TLR9.

Take `CCOC1CN(C2CCC(c3n[nH]c4cc(-c5cc(C)c6ncnn6c5)c(C(C)C)cc34)CC2)C1` (single isomer, unassigned) [Example 150, 6-(3-(4-(3-ethoxyazetidin-1-yl)cyclohexyl)-5-isopropyl-1H-indazol-6-yl)-8-methyl-[1,2,4]triazolo[1,5-a]pyridine]: the pIC50 was 8.77 on human TLR7, 10.00 against human TLR8 and 5.16 against human TLR9.

Regarding `Cc1cc(-c2cc3[nH]nc(C4CCC(N5CC(OC(C)C)C5)CC4)c3cc2C(C)C)cn2ncnc12` (single isomer, unassigned) [Example 161, 6-(3-(4-(3-isopropoxyazetidin-1-yl)cyclohexyl)-5-isopropyl-1H-indazol-6-yl)-8-methyl-[1,2,4]triazolo[1,5-a]pyridine], the results for the pIC50 against human TLR7, against human TLR8 and at human TLR9 were 8.19, 9.30 and 5.08, respectively.

Turning to `Cc1cc(-c2cc3[nH]nc(C4CCC(N5CC(OC(C)C)C5)CC4)c3cc2C(C)C)cn2ncnc12` (single isomer, unassigned) [Example 162, 6-(3-(4-(3-isopropoxyazetidin-1-yl)cyclohexyl)-5-isopropyl-1H-indazol-6-yl)-8-methyl-[1,2,4]triazolo[1,5-a]pyridine], the figures for the pIC50 against human TLR7, on human TLR8 and against human TLR9 were 8.82, 9.15 and 5.07, respectively.

In the case of `Cc1cc(-c2cc3[nH]nc(C4CCC(N5CCC(C)(O)C5)CC4)c3cc2C(C)C)cn2ncnc12` (single isomer, unassigned) [Example 166, 1-(4-(5-isopropyl-6-(8-methyl-[1,2,4]triazolo[1,5-a]pyridin-6-yl)-1H-indazol-3-yl)cyclohexyl)-3-methylpyrrolidin-3-ol], the pIC50 on human TLR7 was 8.38; on human TLR8 it was 9.70; against human TLR9 it was 5.05.
